Experimental data from patent US6849653B2, “Substituted pyrazolyl benzenesulfamide compounds for the treatment of inflammation” (Pharmacia Corporation, priority 2001, dated 2005).

The molecules below were run against T1, rhIKK1/IKK2 heterodimer (Homo sapiens, UniProt O14920+O15111) (assay: IKK Heterodimer Resin Enzyme Assay). Conditions: not given.
T1 construct: made in house; host or cells: insect cells (baculovirus coinfection; SF9)
T1 sequence (O14920 1-756): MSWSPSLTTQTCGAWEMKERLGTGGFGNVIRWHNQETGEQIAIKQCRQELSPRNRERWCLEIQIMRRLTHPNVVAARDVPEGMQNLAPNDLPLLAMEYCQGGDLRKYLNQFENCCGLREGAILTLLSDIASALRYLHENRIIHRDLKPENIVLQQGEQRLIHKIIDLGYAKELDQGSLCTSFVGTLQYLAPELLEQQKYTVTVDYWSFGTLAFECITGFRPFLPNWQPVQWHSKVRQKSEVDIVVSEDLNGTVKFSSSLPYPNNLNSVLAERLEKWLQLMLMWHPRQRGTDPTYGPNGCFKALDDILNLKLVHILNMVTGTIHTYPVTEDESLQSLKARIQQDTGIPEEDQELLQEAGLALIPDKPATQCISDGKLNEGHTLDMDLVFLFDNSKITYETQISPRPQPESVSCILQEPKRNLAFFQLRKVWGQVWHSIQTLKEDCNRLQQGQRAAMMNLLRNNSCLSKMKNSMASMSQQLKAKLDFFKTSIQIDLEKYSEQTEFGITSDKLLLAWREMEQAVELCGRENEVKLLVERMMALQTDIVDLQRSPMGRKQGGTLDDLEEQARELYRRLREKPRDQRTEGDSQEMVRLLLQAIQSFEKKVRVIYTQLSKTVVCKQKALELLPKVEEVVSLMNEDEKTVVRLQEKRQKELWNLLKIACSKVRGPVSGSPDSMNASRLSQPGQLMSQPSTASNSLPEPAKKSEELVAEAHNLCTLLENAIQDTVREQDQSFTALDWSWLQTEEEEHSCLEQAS
T1 sequence (O15111 1-745): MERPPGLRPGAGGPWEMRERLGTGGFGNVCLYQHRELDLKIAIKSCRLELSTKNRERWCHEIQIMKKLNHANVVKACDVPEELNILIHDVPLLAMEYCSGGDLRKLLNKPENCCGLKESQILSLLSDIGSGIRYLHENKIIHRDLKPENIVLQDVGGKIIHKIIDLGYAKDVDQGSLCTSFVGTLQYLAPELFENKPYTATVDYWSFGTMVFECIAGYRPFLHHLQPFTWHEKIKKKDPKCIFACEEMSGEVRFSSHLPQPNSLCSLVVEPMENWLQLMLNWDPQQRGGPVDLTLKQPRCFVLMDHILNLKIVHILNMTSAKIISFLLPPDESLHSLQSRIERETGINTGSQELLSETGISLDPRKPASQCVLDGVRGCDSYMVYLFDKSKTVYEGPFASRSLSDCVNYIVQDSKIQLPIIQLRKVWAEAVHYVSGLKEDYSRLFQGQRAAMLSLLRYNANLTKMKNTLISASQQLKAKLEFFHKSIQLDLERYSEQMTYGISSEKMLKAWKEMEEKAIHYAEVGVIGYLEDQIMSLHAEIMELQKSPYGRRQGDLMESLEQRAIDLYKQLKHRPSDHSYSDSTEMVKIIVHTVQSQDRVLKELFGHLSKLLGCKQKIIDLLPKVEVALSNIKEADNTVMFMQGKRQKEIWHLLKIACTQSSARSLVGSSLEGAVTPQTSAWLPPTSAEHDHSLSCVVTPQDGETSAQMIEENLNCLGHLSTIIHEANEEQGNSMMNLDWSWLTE
Assay type: biochemical
Text: cDNAs of human IKK1 and IKK2 were amplified by reverse transcriptase-polymerase chain reaction from human placental RNA (Clonetech). hIKK1 was subcloned into pFastBac HTa (Life Technologies) and expressed as N-terminal His6-tagged fusion protein. The hIKK2 cDNA was amplified using a reverse oligonucleotide primer which incorporated the peptide sequence for a FLAG-epitope tag at the C-terminus of the IKK2 coding region ([…]). The hIKK2:FLAG cDNA was subcloned into the baculovirus vector pFastBac. The rhIKK2 ([…]) mutant was constructed in the same vector used for wild type rhIKK2 using a QuikChange™ mutagenesis kit (Stratagene). Viral stocks of each construct were used to infect insect cells grown in 40L suspension culture. […] Cell lysates were stored at −80° C. until purification of the recombinant proteins was undertaken as described below.
Isolation of rhIKK1/IKK2 Heterodimer
The heterodimer enzyme was produced by coinfection in a baculovirus system (FLAG IKK2/IKK1 His; MOI=0.1 and I=72 hrs). Infected cells were centrifuged and the cell pellet (10.0 g) was suspended in 50 ml of buffer A. The protein suspension was microfluidized and centrifuged at 100,000×g for 45 min. Imidazole was added to the supernatant to a final concentration of 10 mM. The protein was allowed to bind 25 ml of Ni-NTA resin by mixing for 2 hrs. The protein-resin slurry was poured into a 25 ml column and washed with 250 ml of buffer A containing 10 mM imidazole followed by 125 ml of buffer A containing 50 mM imidazole. Buffer A, containing 300 mM imidazole, was then used to elute the protein. A 75 ml pool was collected and NP-40 was added to a final concentration of 0.1%. […] The protein-resin slurry was then centrifuged for 5 min at 2,000 rpm. The supernatant was collected and the resin re-suspended in 100 ml of buffer C containing 0.1% NP-40. The resin was washed with 375 ml of buffer C containing 0.1% NP-40. The protein-resin was poured into a 25 ml column and the enzyme eluted using buffer B containing FLAG peptide. Enzyme fractions (100 ml) were collected and concentrated to 20 ml using an Amicon membrane with molecular weight cut-off of 30 kDa. Bovine serum albumin was added to the concentrated enzyme to final concentration of 0.1%. The enzyme was then aliquoted and stored at −80° C.
IKK Heterodimer Resin Enzyme Assay
Resin was allowed to settle for one hour and 50 ul of supernatant was removed to a Micolite-2 flat bottom plate (Dynex). 150 μl of scintillation fluid (Microscint 40) (Packard) was added to each well. Incorporation of [γ-^33P] ATP was measured using a Top-Count NXT (Packard).
`COc1ccccc1C(=O)Nc1ccc2ccc3c(C(N)=O)nn(-c4ccc(S(N)(=O)=O)cc4)c3c2c1` [Example 25, 1-[4-(aminosulfonyl)phenyl]-8-[(2-methoxybenzoyl)amino]-1H-benzo[g]indazole-3-carboxamide] was tested, and the IC50 was 1 to 10 µM.

Same assay, conditions: Table 1; values given as bins; read-out: HetD (IKK heterodimer assay values expressed as IC50)
For `Cc1cccc(S(=O)(=O)Nc2ccc3ccc4c(C(N)=O)nn(-c5ccc(S(N)(=O)=O)cc5)c4c3c2)c1` [Example 18, 1-[4-(aminosulfonyl)phenyl]-8-{[(3-methylphenyl)sulfonyl]amino}-1H-benzo[g]indazole-3-carboxamide], the IC50 was 10 to 100 µM.
`CS(=O)(=O)Nc1ccc2ccc3c(C(N)=O)nn(-c4ccc(S(N)(=O)=O)cc4)c3c2c1` [Example 21, 1-[4-(aminosulfonyl)phenyl]-8-[(methylsulfonyl)amino]-1H-benzo[g]indazole-3-carboxamide] was tested, and the IC50 was ≤ 1 µM.
`NC(=O)c1nn(-c2ccc(S(N)(=O)=O)cc2)c2c1ccc1ccc(NC(=O)c3ccccc3OC(F)(F)F)cc12` [Example 29] was tested, and the IC50 was ≤ 1 µM.
With `Cc1cccc(C(=O)Nc2ccc3ccc4c(C(N)=O)nn(-c5ccc(S(N)(=O)=O)cc5)c4c3c2)c1` [Example 11, 1-[4-(aminosulfonyl)phenyl]-8-[(3-methylbenzoyl)amino]-1H-benzo[g]indazole-3-carboxamide] the IC50 was ≤ 1 µM.
In the case of `Cc1ccccc1C(=O)Nc1ccc2ccc3c(C(N)=O)nn(-c4ccc(S(N)(=O)=O)cc4)c3c2c1` [Example 27, 1-[4-(aminosulfonyl)phenyl]-8-[(2-methylbenzoyl)amino]-1H-benzo[g]indazole-3-carboxamide], the IC50 is reported as ≤ 1 µM.
`NC(=O)c1nn(-c2ccc(S(N)(=O)=O)cc2)c2c1ccc1ccc(NS(=O)(=O)c3cc(C(F)(F)F)cc(C(F)(F)F)c3)cc12` [Example 24, 1-[4-(aminosulfonyl)phenyl]-8-({[3,5-bis(trifluoromethyl)phenyl]sulfonyl}amino)-1H-benzo[g]indazole-3-carboxamide] was tested, and the IC50 was 1 to 10 µM.
In the case of `NC(=O)c1nn(-c2ccc(S(N)(=O)=O)cc2)c2c1ccc1ccc(NC(=O)c3cccc(Cl)c3)cc12` [Example 9, 1-[4-(aminosulfonyl)phenyl]-8-[(3-chlorobenzoyl)amino]-1H-benzo[g]indazole-3-carboxamide], the IC50 is reported as ≤ 1 µM.
Work on `NC(=O)c1nn(-c2ccc(S(N)(=O)=O)cc2)c2c1ccc1ccc(NS(=O)(=O)c3ccccc3Cl)cc12` [Example 33, 1-[4-(aminosulfonyl)phenyl]-8-{[(2-chlorophenyl)sufonyl]amino}-1H-benzo[g]indazole-3-carboxamide] yielded an IC50 of 1 to 10 µM.
`NC(=O)c1nn(-c2ccc(S(N)(=O)=O)cc2)c2c1ccc1ccc(NC(=O)c3cccnc3Cl)cc12` [Example 32, 1-[4-(aminosulfonyl)phenyl]-8-{[(2-chloropyridin-3-yl)carbonyl]amino}-1H-benzo[g]indazole-3-carboxamide] was tested, and the IC50 was ≤ 1 µM.
For `NC(=O)c1nn(-c2ccc(S(N)(=O)=O)cc2)c2c1ccc1ccc(NC(=O)c3cccnc3)cc12` [Example 13, 1-[4-(aminosulfonyl)phenyl]-8-[(pyridin-3-ylcarbonyl)amino]-1H-benzo[g]indazole-3-carboxamide], the IC50 was ≤ 1 µM.
With `NC(=O)c1nn(-c2ccc(S(N)(=O)=O)cc2)c2c1ccc1ccc(NC(=O)c3c(Cl)cccc3Cl)cc12` [Example 28, 1-[4-(aminosulfonyl)phenyl]-8-[(2,6-dichlorobenzoyl)amino]-1H-benzo[g]indazole-3-carboxamide] the IC50 was ≤ 1 µM.
In the case of `NC(=O)c1nn(-c2ccc(S(N)(=O)=O)cc2)c2c1ccc1ccc(NC(=O)c3cccc(Cl)c3Cl)cc12` [Example 30, 1-[4-(aminosulfonyl)phenyl]-8-[(2,3-dichlorobenzoyl)amino]-1H-benzo[g]indazole-3-carboxamide], the IC50 is reported as ≤ 1 µM.
In the case of `NC(=O)c1nn(-c2ccc(S(N)(=O)=O)cc2)c2c1ccc1ccc(NS(=O)(=O)c3cccc(C(F)(F)F)c3)cc12` [Example 19, 1-[4-(aminosulfonyl)phenyl]-8-({[3-(trifluoromethyl)phenyl]sulfonyl}amino)-1H-benzo[g]indazole-3-carboxamide], the IC50 is reported as 10 to 100 µM.
Work on `NC(=O)c1nn(-c2ccc(S(N)(=O)=O)cc2)c2c1ccc1ccc(NS(=O)(=O)c3cccc(Br)c3)cc12` [Example 15, 1-[4-(aminosulfonyl)phenyl]-8-{[(3-bromophenyl)sulfonyl]amino}-1H-benzo[g]indazole-3-carboxamide] yielded an IC50 of 1 to 10 µM.
`NC(=O)c1nn(-c2ccc(S(N)(=O)=O)cc2)c2c1ccc1ccc(NS(=O)(=O)c3cc(Cl)c(Cl)cc3Cl)cc12` [Example 23, 1-[4-(aminosulfonyl)phenyl]-8-{[(2,4,5-trichlorophenyl)sulfonyl]amino}-1H-benzo[g]indazole-3-carboxamide] gave an IC50 of 1 to 10 µM.
With `NC(=O)c1nn(-c2ccc(S(N)(=O)=O)cc2)c2c1ccc1ccc(NC(=O)c3ccccc3C(F)(F)F)cc12` [Example 26, 1-[4-(aminosulfonyl)phenyl]-8-{[2-(trifluoromethyl)benzoyl]amino}-1H-benzo[g]indazole-3-carboxamide] the IC50 was ≤ 1 µM.
`NC(=O)c1nn(-c2ccc(S(N)(=O)=O)cc2)c2c1ccc1ccc(NC(=O)c3cccc(C(F)(F)F)c3)cc12` [Example 10, 1-[4-(aminosulfonyl)phenyl]-8-{[3-(trifluoromethyl)benzoyl]amino}-1H-benzo[g]indazole-3-carboxamide] gave an IC50 of 1 to 10 µM.
With “8-amino-1-{4-[(aminothio)peroxy]phenyl}-1H-benzo[g]indazole-3-carboxamide [Example 4c]” the IC50 was ≤ 1 µM.
Molecule `NC(=O)c1nn(-c2ccc(S(N)(=O)=O)cc2)c2c1ccc1ccc(NS(=O)(=O)c3ccc(Cl)c(Cl)c3)cc12` [Example 22, 1-[4-(aminosulfonyl)phenyl]-8-{[(3,4-dichlorophenyl)sulfonyl]amino}-1H-benzo[g]indazole-3-carboxamide] has an IC50 of 1 to 10 µM.
For `NC(=O)c1nn(-c2ccc(S(N)(=O)=O)cc2)c2c1ccc1ccc(NC(=O)c3ccccc3F)cc12` [Example 31, 1-[4-(aminosulfonyl)phenyl]-8-[(2-fluorobenzoyl)amino]-1H-benzo[g]indazole-3-carboxamide], the IC50 was ≤ 1 µM.
